Reference: patent US11840708B2, “Isogenic blood-brain barrier model” (Wisconsin Alumni Research Foundation, priority 2016, dated 2023)
Where two headings read alike, the source gives them in different places.

How the values were obtained:
[1] = Sodium fluorescein permeability across iPSC-derived BMEC monolayer on Transwell; format: in vitro ADME, human; conditions: human, 48 h
Procedure: (§1) Permeability Measurements—Sodium fluorescein (10 μM, 376 Daltons; Sigma) was utilized to determine the permeability of the iPSC-BMEC barrier. Following 48 h of monoculture or co-culture, fresh EC medium was added to the Transwell system, with EC medium containing sodium fluorescein added to the top chamber and EC medium lacking sodium fluorescein added to the bottom chamber. 150 uL aliquots were taken from the bottom chamber at 0, 15, 30, 45, and 60 min, and immediately replaced with pre-warmed EC medium. Permeability coefficients were calculated based on the cleared volume of fluorescein from the top chamber to the bottom chamber.

iPSC-derived BMECs = assay: as above; format: in vitro ADME, human; conditions: CS03iCTRn2-derived BMECs
Procedure: as §1

Papp at 60 min, 10 μM ([1]; IMR90-4 iPSC-derived BMECs co-cultured with EZ-sphere-derived neurons and astrocytes (1:3), read-out: sodium fluorescein permeability Pe): 0.12 ± 0.001 ×10⁻⁶ cm/s
Papp at 60 min, 10 μM ([1]; IMR90-4 iPSC-derived BMECs co-cultured with NPC-derived astrocytes and neurons, read-out: sodium fluorescein permeability Pe): 0.2 ± 0.1 ×10⁻⁶ cm/s
Papp at 60 min, 10 μM ([1]; IMR90-4 iPSC-derived BMECs co-cultured with primary rat astrocytes, read-out: sodium fluorescein permeability Pe): 0.19 ± 0.01 ×10⁻⁶ cm/s
Papp at 60 min, 10 μM ([1]; isogenic co-culture: CS03iCTRn2-derived BMECs with neurons:astrocytes (1:3), read-out: fluorescein permeability Pe): 0.062 ± 0.011 ×10⁻⁶ cm/s
Papp at 60 min, 10 μM ([1]; monocultured CS03iCTRn2-derived BMECs, read-out: fluorescein permeability Pe): 0.81 ± 0.09 ×10⁻⁶ cm/s
Papp at 60 min, 10 μM ([1]; monocultured IMR90-4 iPSC-derived BMECs, read-out: sodium fluorescein permeability Pe): 0.48 ± 0.03 ×10⁻⁶ cm/s
decrease of fluorescein permeability, isogenic co-culture compared to monoculture (iPSC-derived BMECs): 13 fold
SMILES: O=C1OC2(c3ccc(O)cc3Oc3cc(O)ccc32)c2ccccc21 [sodium fluorescein, Sodium fluorescein]
